“And” between values parts separate entries of the source, which are not always exact repeats. Equal values may be shown once. Read-outs that look alike come from different tables or passages of the source. Each block holds one compound with its values, some of them ahead of it.
Assays:
[1] = test system: COC(=O)c1ccccc1-c1c2ccc(=N)cc-2oc2cc(N)ccc12
Text: (3) V=Vmax[S]^n/Km^n+[S]^n
(§1) In this equation, V is the substrate transport velocity in static conditions, [S] is the substrate (R123) concentration, Vmax is the maximum velocity of R123 transport, Km is Michaelis–Menten constant, and n is the Hill slope or degree, which usually explains the cooperative behavior in substance transport. It should be noted that, in this definition, Km = [S] when V = 0.5 Vmax.
(§2) It is assumed that when the inhibitor is present, any R123 molecule that passed through the membrane passed by means of passive transport [29]. […] (R123 concentration) curve was plotted (Figure 8) using online monitoring results, providing the R123 concentration.

OAT1 = test system: OAT1; set-up: method as in PMID 23140242, PMID 22470447; conditions: OAT1-mediated transport, Michaelis–Menten model; cited from earlier work
MDR1 [2] = conditions: cited from earlier work
[3] = test system: RPTEC/TERT1 artificial tubular barrier; experiment: Transport assay of R123 and HSA-647 across the artificial tubular barrier on Transwell inserts, static and in the microphysiological system (pressure, flow); conditions: for Concentration of R123 in the peritubular capillary after 48 h: start 2 µM
Protocol: (§3) Experiments were performed using an immortalized human renal proximal tubular epithelial cell line (RPTEC/TERT1) [21], which was supplied by Evercyte GmbH (Vienna, Austria). […] To bring these cells into culture 0.6 × 10^5 cells were seeded onto 24-well plates Thincert Transwell inserts (0.33 cm^2, 0.4 µm pore size; Greiner Bio-one) and further cultured in ProxUp Basal Medium (Evercyte, Austria). The cells were cultured on Thincert inserts (Greiner Bio-one, Frickenhausen, Germany) for at least 8 days to ensure the formation of a confluent cell monolayer. The cell layer integrity was confirmed by measuring the trans-epithelial electrical resistance (TEER) with an epithelial volt-ohm-meter (EVOM, Millicel, Darmstadt, Germany). Transwell inserts were used for transport experiments when TEER values exceeded 150 Ω × cm^2.
(§4) The transport of R123 and HSA-647 across the tubular barrier was carried out under static and dynamic cultivation conditions. The static conditions were carried out by placing the Transwell^TM inserts on a well plate, with no pressure or flow applied.
(§5) Fluorescence intensity at the beginning and end of the experiments was measured using a microplate reader (Tecan Infinite Pro, Tecan Group, Switzerland), and a miniaturized fluorescence reader (Fluo Sens Integrated, Qiagen, Hilden, Germany) was used for online monitoring. […] Using the calibration curves, the fluorescent intensity (FU) results were converted to concentration (µM).
(§6) During the transport assays, the decrease in the fluorescence intensity in the artificial microfluidic channels mimicking the peritubular capillary structures (in the well, see Figure 2; compartment 7) was measured constantly. R123 (2 μM) and HSA-647 (0.6 µM) were added to the cell culture medium and to the microfluidic channel (Figure 2), and a Transwell insert populated with cells (compartment 4 in Figure 2).
(§7) The whole system was then placed on the Qiagen fluorescence meter in such a way that only the fluorescence signal of the cell culture medium in the channels (compartment 1 in Figure 2) was measured every 120 s for maximum 48 h. Cell-free Transwell^TM inserts were used as a control. Transport assay experiments for each condition were performed and measured in triplicates.

[4] = test system: RPTEC/TERT1 artificial tubular barrier; conditions: human
Protocol: as §3, §4, §5, §6, §7

MDR1 [5] = target: MDR1 (Homo sapiens, UniProt P08183); experiment: Kinetic characterization (Hill fit) of MDR1-mediated R123 transport above the artificial tubular barrier
Chain of MDR1 (Homo sapiens, UniProt P08183) (P08183 whole entry): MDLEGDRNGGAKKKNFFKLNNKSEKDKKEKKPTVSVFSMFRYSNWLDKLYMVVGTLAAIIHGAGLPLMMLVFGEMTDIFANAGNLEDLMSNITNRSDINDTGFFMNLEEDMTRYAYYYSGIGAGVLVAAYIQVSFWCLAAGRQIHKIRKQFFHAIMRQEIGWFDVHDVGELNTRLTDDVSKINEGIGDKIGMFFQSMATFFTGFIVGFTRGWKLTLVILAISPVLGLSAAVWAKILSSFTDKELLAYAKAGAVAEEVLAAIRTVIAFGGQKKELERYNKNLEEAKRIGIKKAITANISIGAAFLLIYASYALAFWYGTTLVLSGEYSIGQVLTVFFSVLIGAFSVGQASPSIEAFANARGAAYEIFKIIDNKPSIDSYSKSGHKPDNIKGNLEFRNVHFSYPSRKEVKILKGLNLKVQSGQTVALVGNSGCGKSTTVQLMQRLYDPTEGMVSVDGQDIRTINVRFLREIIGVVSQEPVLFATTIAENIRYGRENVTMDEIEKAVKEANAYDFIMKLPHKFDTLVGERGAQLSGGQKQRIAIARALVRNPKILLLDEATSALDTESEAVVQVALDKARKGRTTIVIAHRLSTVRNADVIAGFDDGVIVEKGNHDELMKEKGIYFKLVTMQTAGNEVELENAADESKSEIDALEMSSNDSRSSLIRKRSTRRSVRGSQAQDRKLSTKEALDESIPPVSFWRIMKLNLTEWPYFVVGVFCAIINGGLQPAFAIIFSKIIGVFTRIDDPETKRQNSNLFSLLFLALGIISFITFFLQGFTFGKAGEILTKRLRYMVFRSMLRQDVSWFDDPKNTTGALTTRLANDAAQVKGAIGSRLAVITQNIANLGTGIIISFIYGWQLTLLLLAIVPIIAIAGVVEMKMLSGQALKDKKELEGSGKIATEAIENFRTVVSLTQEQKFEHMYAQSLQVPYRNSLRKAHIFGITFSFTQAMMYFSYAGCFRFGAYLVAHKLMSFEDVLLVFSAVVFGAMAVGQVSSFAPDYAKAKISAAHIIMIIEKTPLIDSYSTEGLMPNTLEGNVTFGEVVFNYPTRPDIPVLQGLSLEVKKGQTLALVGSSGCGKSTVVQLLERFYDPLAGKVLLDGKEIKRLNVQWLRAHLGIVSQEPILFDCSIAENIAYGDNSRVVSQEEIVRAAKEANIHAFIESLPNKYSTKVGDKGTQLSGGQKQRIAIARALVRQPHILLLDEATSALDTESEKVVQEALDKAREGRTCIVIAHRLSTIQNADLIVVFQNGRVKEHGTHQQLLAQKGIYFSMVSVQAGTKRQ
Text: (3) V=Vmax[S]^n/Km^n+[S]^n
as §1, §2

MDR1 [6] = experiment: Quantitative measurement of MDR1 expression by sandwich ELISA; format: cell-based, human; conditions: RPTECs, tariquidar 50 µg/mL, static and dynamic conditions
Protocol: To measure the amount of MDR1 expressed in different conditions, a sandwich enzyme-linked immunosorbent assay (ELISA) kit for MDR1 (antibodies-online, Aachen, Germany) was used. After each experiment, lysed cells were centrifuged at 5000× g for 5 min (at 4 °C); then, the supernatant was collected for ELISA [27]. For each experimental condition, three samples were prepared, with each sample measured in duplicates.
The amount of MDR1 expressed in the cell-based artificial proximal tubule was measured by the ELISA quantitative measurement.
To confirm, we performed the Student’s t-test; there is no significant difference in the mean values of MDR1 concentration in different conditions.

MDR1 [7] = test system: MDR1; set-up: method as in PMID 28487651; conditions: tariquidar in interaction with MDR1; read-out: KI (inhibition constant); cited from earlier work
[8] = absence of inhibitor, static, from the literature

Compound: MDR1 (Homo sapiens)
Km [1]: 17.47 ± 8 µM

Concentration of R123 in the peritubular capillary after 48 h ([3]; 0.13 µL/s flow, no tariquidar): 600 nM | Concentration of R123 in the peritubular capillary after 48 h ([3]; 5 mbar pressure, no tariquidar): 1100 nM | AVG R123 conc. In well, fluorescence endpoint after 48 hours ([3]; flow): 0.92 µM | AVG R123 conc. In well, fluorescence endpoint after 48 hours ([3]; flow inhibited): 0.25 µM | AVG R123 conc. In well, fluorescence endpoint after 48 hours ([3]; pressure): 0.68 µM | AVG R123 conc. In well, fluorescence endpoint after 48 hours ([3]; pressure inhibited): 0.24 µM | AVG R123 conc. In well, fluorescence endpoint after 48 hours ([3]; static inhibited): 0.22 µM | Concentration of R123 in the peritubular capillary after 48 h ([3]; static, no tariquidar): 1500 nM | Concentration of R123 in the peritubular capillary after 48 h ([3]; static, tariquidar present): 1700 nM | Passive transport of R123, JR123,F,PT, calculated from equation [4]: 0.026 pmol/min | Passive transport of R123, JR123,P,PT, calculated from equation [4]: 0.0102 pmol/min | Passive permeability P ([4]; 2 µM): 1.5e-08 L/min | Rdiffflow (effect of flow on total transport compared to static) ([4]; 2 µM): 0.0434 pmol/min | Rdiffpressure (effect of pressure on total transport compared to static) ([4]; 2 µM): 0.0009 pmol/min | Total transport rate of R123, JR123flow ([4]; 2 µM): 0.112 pmol/min | Total transport rate of R123, JR123pressure ([4]; 2 µM): 0.069 pmol/min | Total transport rate of R123, JR123static ([4]; 2 µM): 0.068 pmol/min | Sieving coefficient θ ([4]; 48 h, 2 µM): 0.22 | Active transport rate of R123, JR123AT,flow (MDR1 [5]; 0.13 µL/s flow, total minus passive transport rate): 0.048 pmol/min | Active transport rate of R123, JR123AT,pressure (MDR1 [5]; 5 mbar pressure, total minus passive transport rate): 0.042 pmol/min | n (Hill slope) (MDR1 [5]; absence of inhibitor, static, present study): 2 | n (Hill slope) (MDR1 [5]; presence of tariquidar, static, present study): 2 | Active transport rate of R123, JR123AT,static (MDR1 [5]; static, total minus passive transport rate): 0.038 pmol/min
Compound: COC(=O)c1ccccc1-c1c2ccc(=N)cc-2oc2cc(N)ccc12 [R123, Rhodamine 123]
Km (OAT1): 0.3 ± 0.1 µM | Km (MDR1 [2]; MDR1-mediated transport, Michaelis–Menten model): 17.5 ± 2.8 µM | Km (MDR1 [2]; [8]): ~17.5 µM | Vmax (MDR1 [2]; [8]): 0.0525 pmol/min and 0.0525 [22] pmol/min | Km (MDR1 [2]; presence of inhibitor (non-competitive, Km unchanged), static, from the literature): ~17.5 µM | n (Hill slope) (MDR1 [2]; presence of inhibitor, static, from the literature): 2 [22, 28] | V'max (MDR1 [5]; presence of tariquidar, static, calculated from Vmax/(1+[I]/KI) with literature KI = 0.32 nM (ref 32)): 2.18 × 10^−7 pmol/min and 2.18 × 10^−7 (from Equation (3)) [32] pmol/min | V'max (MDR1 [5]; presence of tariquidar, static, from curve fitting, present study): 1.25 × 10^−7 ± 3 × 10^−9 pmol/min and 1.25 × 10^−7 ± 3 × 10^−9 (from curve fitting) pmol/min

Compound: COc1cc2c(cc1OC)CN(CCc1ccc(NC(=O)c3cc(OC)c(OC)cc3NC(=O)c3cnc4ccccc4c3)cc1)CC2 [tariquidar]
Effect on the level of MDR1 protein (ELISA) (MDR1 [6]): did not affect the level of MDR1 protein | Ki (MDR1 [7]): 0.32 nM
